These results are taken from patent US12564635B2, “Long-lived gadolinium based tumor targeted imaging and therapy agents” (WISCONSIN ALUMNI RESEARCH FOUNDATION, priority 2015, dated 2026).

The conditions of data set [1]: at this field strength (4.7 T); cited from earlier work.
Data set [2] concerns orthotopic glioblastoma stem cell line 12.6. Put plainly: Brain tumor uptake by MRI in orthotopic glioblastoma model. It counts as in vivo, mouse. As to the method:
To investigate the use of Gd-DO3A-404 to detect tumors and metastases in situ, in particular, in the brain, we created an orthotopic glioblastoma model using cancer stem cells injected into the brain. To create the model, brains of mice were injected with cells from orthotopic glioblastoma stem cell line 12.6. After sufficient tumor growth, monitored with T2-weighted MRI, we imaged subjects pre-contrast and after delivery (24-72 hours) of two different doses of Gd-DO3A-404 (2.5 or 3.7 mg; ˜0.12−0.18 mmole/kg).

Data set [3] concerns Alpha-beta crystalline overexpressing mice (triple negative breast cancer model). Put plainly: MRI uptake in triple-negative breast cancer model. It counts as in vivo, mouse. The conditions noted are these: over 48 hours post-administration; FIG. 17. As to the method:
Alpha-beta crystalline overexpressing mice (a triple negative breast cancer model) underwent MR imaging pre administration and 24 hours and 48 hours post-administration of […] (n=4).

Data set [4] in a line: In vivo biodistribution by T1-weighted SPGR MRI of the abdomen. On the set-up: species or system mouse. The note with it: 2.5 mg intravenous. As to the method:
In this example, we determined the in vivo biodistribution of the Gd-DO3A-404 after the contrast agent was administered (see Example 5). During the course of performing the experiments described in Example 4, we also acquired T1-weighted spoiled gradient (SPGR) images in the abdomen of the mice, to observe biodistribution. Abdominal cross-sections imaged included the myocardium (FIGS. 8-12, top image), the liver (FIGS. 8-12, center image), and a kidney (FIGS. 8-12, bottom image). Images are shown pre-contrast (FIG. 8), and at one hour (FIG. 9), 24 hours (FIG. 10), four days (FIG. 11) and seven days post-contrast (FIG. 12).

The test system of data set [5] is Orthotopic GSC 115 (human glioma stem cell model). Description: MRI uptake in orthotopic GSC 115 model. The data set is classed as in vivo. The note with it: 24 hours post administration; FIG. 18 right. As to the method: Orthotopic GSC 115 was imaged at 24 hours post administration of Gd-DO3A-404. GSC is a human glioma stem cell model which was isolated from a human glioma patient.

Data set [6] deals with orthotopic U87 xenografts. Put plainly: MRI uptake in orthotopic U87 xenografts. The data set is classed as in vivo, mouse. The note with it: NOD-SCID mice; 24 and 48 hours post administration; FIG. 18 left. As to the method: NOD-SCID mice with orthotopic U87 xenografts were imaged pre-administration, 24 hours, and 48 hours post administration of Gd-DO3A-404.
Data set [7] is described as follows: MR relaxivity (r1, r2) at 4.7 T. It counts as physicochemical. As to the method: For initial studies, relaxivity was measured at 4.7 T. Longitudinal relaxivity, which is defined by the linear relationship between R1 relaxation rate and concentration, was measured using an inversion recovery spin echo sequence.
Higher relaxivity results in brighter signal on a T1-weighted image, and thus indicates greater T1-weighted signal enhancement potential. […]
Similarly, by plotting R2 versus concentration at five different concentrations of the Gd-DOTA-404 agent and determining the equation of the resulting line (see FIG. 3, right panel), we calculated a transverse relaxivity in plasma of 20.4 s−1/mM.

Data set [8] relates to flank A549 tumor (human non small cell lung cancer) xenograft. Description: In vivo MRI of flank A549 xenograft mice. On the set-up: species or system mouse. As to the method:
For proof-of-concept in vivo imaging of tumor uptake of the Gd-DO3A-404 agent, nude athymic mouse with a flank A549 tumor (non small cell lung cancer) xenograft was scanned. […] Mice were anesthetized and scanning performed prior to contrast administration and at 1, 4, 24, 48, and 72 hours following contrast delivery. Imaging was performed on a 4.7 T Varian preclinical MRI scanner with a volume quadrature coil. T1-weighted images were acquired at all imaging time points using a fast spin echo scan with the following pulse sequence parameters: repetition time (TR)=206 ms, echo spacing=9 ms, echo train length=2, effective echo time (TE)=9 ms, 10 averages, with a 40×40 mm^2 field of view, 192×192 matrix, 10 slices of thickness lmm each.

Data set [9] has as its system flank U87 (human glioma) tumor. Put plainly: In vivo MRI of flank U87 xenograft mice.
Method: To test uptake and retention in rodent models of human cancer, flank xenografts were established in mice for two distinct tumor types, A549 (human non small cell lung cancer, NSCLC) and U87 (human glioma). N=3 for each model. For pre-contrast imaging, T1-W images of the tumor and abdomen (FIG. 4; 2 leftmost images) and T1 maps of the tumor were obtained.
At time zero (“contrast”), 2.5 mg of Gd-DO3A-404 (˜12 mmol/kg body mass) was delivered into the mice by intravenous injection. Animals were scanned pre-contrast and at various time points between one hour and seven days post-contrast (after one hour, 24 hours, 48 hours, three days, four days and seven days). T1 maps of the tumor were acquired for each time point, along with T1-weighted images of the tumor and the abdomen (see FIGS. 4 and 5).
We the quantified the tumor to muscle ratio and compare it to baseline scans.
The next data set has as its system A549 flank tumor. Description: Tissue biodistribution by SF-ICPMS in A549-flank bearing mice. It counts as in vivo, mouse. The note with it: 72 hours after administration; FIG. 16. As to the method: In this extension of Example 6, we further examined the in vivo biodistribution of Gd-DO3A-404 after it is administered. Specifically, tissue biodistribution was measured in A549-flank bearing mice 72 hours after administration of Gd-DO3A-404. Nude athymic mice were sacrificed, perfused and tissues were collected and quantitated for Gd by high-resolution (magnetic-sector) inductively-coupled plasma mass spectrometry (SF-ICPMS). n=3 mice.

Data set [10] deals with flank U87 (human glioma) xenograft. Put plainly: Simultaneous PET/MR imaging of U87 flank xenograft rat. The data set is classed as in vivo. As to the method:
Simultaneous imaging was performed using a clinical Pet/MRI scanner. ^64Cu-DO3A-404 has the same structure as Gd-DO3A-404, except that ^64Cu, a positron emitting radionuclide, is chelated to the chelating moiety instead of Gd. ^64Cu-DO3A-404 was synthesized (and can be synthesized using the methods disclosed herein; see, e.g., Example 1). Both the ^64Cu-DO3A-404 and Gd-DO3A-404 chelates were injected simultaneously into a rat with a flank U87 (human glioma) xenograft.
T1-weighted scans of the U87 flank xenograft were obtained using the clinical 3.0 T PET/MR. Rats were imaged pre- and 24 hours post-administration of the Gd-DO3A-404.
Simultaneous PET/MR scans of the U87-flank bearing rat 24 hours post-simultaneous administration of both Gd-DO3A-404 (the MRI contrast agent) and ^64Cu-DO3A-404 (the PET contrast agent) were obtained.

A short description of data set [11]: Free Gd concentration by CHELEX solid phase extraction and ICP-MS. The note with it: CHELEX solid phase extraction, magnetic sector ICP-MS. It counts as physicochemical. The source says:
After considering other alternatives, we decided to determine free Gd concentration by selective chelation and separation of the free Gd. We separated the Gd-DO3A-404 complex from free Gd (III) ion by CHELEX® solid phase extraction (as described by Raju, et al., J. Anal. At. Spectrom. 25 (2010), 1573-1580). Specifically, using a CHELEX® solid phase extraction column comprising an immobilized ligand (iminodiacetate) with very high affinity for free ion species of multi-valent transition and rare-earth metals, Gd was retained and then eluted using a known ratio of chelated Gd-DO3A-404 and acid-digested Gd-DO3A-404. The sample was the analyzed by magnetic sector ICP-MS to determine the concentration of free Gd.

For `CNC[C@H](O)[C@@H](O)[C@H](O)[C@H](O)CO.O=C([O-])CN1CCN(CC(=O)[O-])CCN(CC(=O)O)CCN(CC(=O)[O-])CC1.[Gd+3]` [DOTAREM®], in data set [1], the “relaxivities of clinical T1 shortening contrast agents” value is 2 to 3 s⁻¹ mM⁻¹.
Consider `C[N+](C)(C)CCOP(=O)([O-])OCCCCCCCCCCCCCCCCCCc1ccc(NC(=O)CN2CCN(CC(=O)[O-])CCN(CC(=O)[O-])CCN(CC(=O)[O-])CC2)cc1.[Gd+3]` [Gd-DO3A-404], for which the brain tumor uptake result in [2] (increased dose 3.7 mg, FIG. 15 bottom panel) was “uptake in one subject”; in [2] (lower dose 2.5 mg, FIG. 15 upper panel) it was “no brain uptake was observed”. Besides, the “uptake in breast cancer tissue by MRI” value in [3] is “taken up by and localized to the breast cancer tissue”. Besides, the P-kinetic profile result in data set [4] is “including hepatobiliary excretion, that is similar to that of related alkylphosphocholine analogs”. In data set [4] (FIGS. 8-12), the “circulation in the myocardium and blood pool” value is reported as “circulates for nearly up to a day”. The “clearance from liver and kidney” value in data set [4] (up to seven days, FIGS. 8-12) is “substantially cleared over time, with more rapid clearance occurring through the liver, and more prolonged clearance occurring through the kidney”. Moreover, the “tumor uptake by T1-weighted MRI” value in data set [5] is on record as “differentially taken up by the tumor tumor tissue”; in [6], “differentially taken up by the tumor tissue”. Also, the results for the “Longitudinal relaxivity (r1)” value in data set [7] (in excipient), in [7] (in plasma) and in data set [7] (in saline) were 5.84 s⁻¹ mM⁻¹, 5.74 s⁻¹ mM⁻¹ and 5.68 s⁻¹ mM⁻¹, respectively. Also, the “tumor to muscle T1-weighted signal ratio following delivery” value is listed as “approximately doubled” in data set [8] (2.5 mg intravenous, A549, versus pre-contrast, FIG. 6) and “approximately doubled” in data set [9] (2.5 mg intravenous, U87, versus pre-contrast, FIG. 6). In [8] (2.5 mg intravenous, NSCLC model, FIG. 4), the “time of maximum tumor uptake” value is reported as 24-48 hours post-contrast. The “duration of tumor uptake” value in data set [8] (2.5 mg intravenous, NSCLC model, FIG. 5) is “maintained over several days”. Moreover, in data set [8] (2.7 mg via tail vein injection, scans 1-72 hours, FIG. 2), the “MRI imaging of the tumor (T1-weighted enhancement)” value is “significantly enhanced by 24 hours post-injection”. The “tumor R1 relaxation rate” value in data set [8] (A549, 48 hours post-contrast versus pre-contrast, FIG. 7) is listed as “significantly increased”; in data set [9] (U87, 48 hours post-contrast versus pre-contrast, FIG. 7) it was “significantly increased”. Also, in data set [9] (2.5 mg intravenous, U87 model, FIG. 4), the “onset of tumor uptake” value is given as “already observable at one hour after delivery”. Moreover, the “level and duration of tumor uptake compared with NSCLC model” value in [9] (2.5 mg intravenous, U87 model, FIG. 5) is “appeared to reach higher levels and was maintained for a longer time period”. Besides, in the data set on A549 flank tumor, the “tissue biodistribution (Gd by SF-ICPMS)” value is given as “selectively taken up by tumor tissue”. The “tumor uptake by T1-weighted MR (clinical 3.0 T PET/MR)” value in [10] (24 hours post-administration, FIG. 19) is “selective tumor uptake”. Besides, in data set [10] (24 hours post-simultaneous administration, FIG. 20), the “tumor enhancement in MRI images (simultaneous PET/MR)” value is “enhanced enhances in both the T1 and T2 MRI images”. Moreover, the “free Gd concentration” value in data set [11] came to 0.081%.
